Measurements reported in US20210330756A1, “Acetylation of Miro1” (University of South Carolina, priority 2020, published 2021).

Legend:
[1] = tested on: axonal mitochondrial membrane potential (ΨM); assay: Mitochondrial membrane potential (JC-1 red/green ratio) in axon shafts of DRG neurons; type: cell-based, rat
Source text: Considering the above changes in mitochondrial transport, we asked if MAG and CSPG might affect mitochondrial function in axons. Functional mitochondria are needed to generate ATP, and the mitochondrion's membrane potential (ΨM) is thought to reflect its capacity for generating ATP. Increased anterograde transport of mitochondria in axons correlated with higher ΨM, as measured by the ratiometric 5,5′,6,6′-tetrachloro-1,1′,3,3′-tetraethylbenzimidazolcarbocyanine iodide (JC-1) dye (Miller and Sheetz, 2004), and reduced axonal ΨM in Drosophila melanogaster larvae was recently correlated with overall decrease in mitochondrial transport (Liao et al., 2017).
JC-1 (Life Technologies) was used for wm measurements. For this, DRG cultures were equilibrated in culture medium with […] JC-1 for 20 min at 37° C. Medium was replaced, and the cells were maintained at 37° C. in the high-content imaging system on which JC-1 fluorescent signals in green and red wavelengths were acquired. […]
Vesicle trafficking was quantified using differential ImageJ Difference Tracker Plug-in (Andrews et al., 2010). 50-80-μm long unbranched axon segments at approximately the mid-region between growth cone and cell body were analyzed. […] The distance between the growth tip at end of the post-CALI sequence and the pre-CALI baseline was measured using LAS-X software. Movement of ≥0.5 μm toward the axon shaft was counted as retracted. Fluorescence emission of the Mito-KR post-CALI was analyzed using ImageJ. For normalizing intensities across FRAP image sets, fluorescence intensity at each time point was scaled using the LAS-X FRAP module so that the residual fluorescence signal at t=0 min (post-bleach) was set at 0 and the prebleach intensity was set at 100% for each bleached ROI. For axon shaft FRAP analyses, each 50-μm bleached ROI was divided into […], and the fluorescence intensity recovery was measured as described above. […] A minimum of 75 unmyelinated axons was analyzed for each nerve. All unmyelinated axons from each analyzed image were included for quantitative studies. […]

Ac-histone H4 = assay: Immunoblotting for Ac-histone H4 in adult DRG neurons (HDAC specificity); type: cell-based, rat
Protocol: We tested for this specificity in the adult DRG neurons from above by immunoblotting. […] (A) Number of mitochondria in growth cones after exposing DRG cultures to 10 μM TubA versus vehicle (control) for 1 h is shown as average fold-change in number of mitochondria per growth cone±SEM (n=13 axons across three culture preparations; *, P≤0.05 by one-way ANOVA with Bonferroni post hoc analysis). (B) Representative EMs of Remak bundles (arrowheads) in naive Sciatic nerve and nerves after 2 h vehicle (DMSO) or TubA injection are shown. Arrows indicate mitochondria in the unmyelinated axons. Note that a Schwann cell nucleus (asterisk) is seen in the Remak bundle for DMSO image but not the other two micrographs (scale bar=3 μm). (C) Quantification of number of mitochondria per unmyelinated axon from EM images as in B is shown as average±SEM (n≥5; *****, P≤0.0001 by one-way ANOVA with Bonferroni post hoc analysis). (D-F) Quantification for indicated parameters for mitochondrial transport in sciatic nerve in vivo using tetramethylrhodamine, ethyl ester, perchlorate to visualize mitochondria is shown.
For immunoblotting, protein lysates or immunoprecipitates were denatured by boiling in Laemmli sample buffer, fractionated by SDS-PAGE, and transferred to nitrocellulose membranes. Blots were blocked for 1 h at room temperature with 5% nonfat dry milk in TBS with 0.1% Tween 20 (TBST). Primary antibodies diluted in 5% BSA in TBST were added to the membranes and incubated overnight at 4° C. with rocking. Primary antibodies consisted of rabbit anti-Myc (1:2,000; Cell Signaling; 71D10), rabbit anti-RHOT1 antibody (1:1,000; Aviva Systems Biology; ARP44817 P050), rabbit anti-HDAC6 antibody (1:2,000; Cell Signaling; 7558), rabbit anti-ERK1 (1:5,000; Abcam; ab32537), and affinity-purified custom rabbit anti-Miro1-AcK105 (1:2,500; Twiss laboratory, see above) antibodies. For the anti-Miro1-AcK105 antibody, preimmune and test-bleed sera were used at 1:1,000 dilutions to initially evaluate for specificity. After washing in TBST, blots were incubated with HRP-conjugated anti-rabbit IgG antibodies (1:5,000; Jackson Immunoresearch) diluted in blocking buffer for 1 h at room temperature. Signals were detected using ECL Prime (GE Healthcare) after extensive washing.

Row | SMILES | ΨM in the axons ([1]; 1 μg/ml Rho activator or 1 μM thapsigargin) | Ac-histone H4 levels (Ac-histone H4; 1 μM) | Ac-histone H4 levels (Ac-histone H4; 10 μM) | Ac-histone H4 levels (Ac-histone H4; 100 μM) | effect on MAG-Fc- or CSPG-dependent declines in ΨM ([1]; 10 μM TubA) | effect on Rho activator- and thapsigargin-dependent decrease in ΨM ([1]; +10 μM TubA)
1 | C/C=C(/C)C(=O)O[C@H]1C(C)=C2[C@H]([C@@H]1OC(=O)CCCCCCC)[C@@](C)(OC(C)=O)C[C@H](OC(=O)CCC)[C@@]1(O)[C@H]2OC(=O)[C@@]1(C)O [thapsigargin] | decreased ΨM |  |  |  |  | 
2 | CN1CCc2c(c3ccccc3n2Cc2ccc(C(=O)NO)cc2)C1 [TubA, tubastatin] |  | no change in Ac-histone H4 levels | no change in Ac-histone H4 levels | only modest increase in Ac-histone H4 | prevented by inhibition of HDAC6 with TubA | also prevented by HDAC6 inhibition
